Data published in patent US10167300B2, “Metalloenzyme inhibitor compounds as fungicides” (priority 2014, dated 2019).
Read-outs that look alike come from different tables or passages of the source.

Experiments:
[1] = tested on: Mycosphaerella graminicola; Anamorph: Septoria tritici; Bayer Code SEPTTR (standard laboratory isolate, SI SEPTTR); test: Type A (high volume) assay, leaf blotch of wheat, standard laboratory SEPTTR isolate (SI SEPTTR); type: in vivo, Mycosphaerella graminicola on wheat plants (variety Yuma); settings: Zymoseptoria tritici, standard laboratory isolate, high volume, 50 ppm, wheat (Yuma)
Experimental: (§1) Example A: Evaluation of Fungicidal Activity: Leaf Blotch of Wheat (Mycosphaerella graminicola; Anamorph: Septoria tritici; Bayer Code SEPTTR)
(§2) For Type A assays, technical grades of the experimental fungicides in Table 4 below were dissolved in acetone, and then mixed with nine volumes of water containing 110 ppm Triton X-100. The fungicide solutions were applied onto wheat seedlings using an automated booth sprayer. For Type B assays, emulsifiable concentrate (EC) formulations of technical grades of the experimental fungicides in Table 4 below were prepared at 10% (w/v), and then mixed with 150 volumes of 0.1% Trycol 5941. These solutions were applied onto wheat seedlings using an automated track sprayer at 200 L/ha. All sprayed plants were allowed to air dry prior to further handling.
(§3) Wheat plants (variety Yuma) were grown from seed in a greenhouse in 50% mineral soil/50% soil-less Metro mix until the first leaf was fully emerged, with 7-10 seedlings per pot. Prior to or after application of experimental fungicides, plants were inoculated either with spores of a standard laboratory SEPTTR isolate (SI SEPTTR) or with spores from a SEPTTR field isolate collected from Wellsbourne, England in 2012 (FI SEPTTR). After inoculation the plants were kept for 3 days at 20° C. in 100% relative humidity (one day in a dark dew chamber followed by two days in a lighted dew chamber). Plants were then transferred to a 20° C. greenhouse for disease development. When disease symptoms were fully expressed on untreated plants, infection levels on treated plants were assessed on a scale of 0 to 100 percent disease severity. Percent disease control was calculated using the ratio of disease severity on treated plants relative to untreated plants.

[2] = Type B (low volume, EC formulation, track sprayer 200 L/ha) assay, leaf blotch of wheat, SEPTTR field isolate (FI SEPTTR); type: in vivo, Mycosphaerella graminicola on wheat plants (variety Yuma); settings: Zymoseptoria tritici, 72 h, SEPTTR field isolate, low volume Type B assay, 100 g/ha, wheat leaf blotch
Experimental: as §1, §2, §3

[3] = 24 h, 1 Day Protectant, read-out: Disease Control, SI SEPTTR Type A Assay (50 ppm) 1 DP
[4] = 72 h, 3 Day Curative, read-out: Disease Control, SI SEPTTR Type A Assay (50 ppm) 3 DC

SMILES | pest or weed control at 50 ppm [1, 3] | pest or weed control at 50 ppm [1, 4] | pest or weed control at 100 g/ha ([2]; 3 Day Curative, read-out: Disease Control, FI SEPTTR Type B Assay (100 g/ha) 3 DC) | pest or weed control at 100 g/ha ([2]; 3 Day Protectant, read-out: Disease Control, FI SEPTTR Type B Assay (100 g/ha) 3 DP)
N#Cc1ccc(Oc2ccc(C(O)(Cn3cnnn3)C(F)(F)c3ccc(F)cc3F)nc2)cc1 (stereo not shown) [Compound 1, 4-((6-(1-(2,4-difluorophenyl)-1,1-difluoro-2-hydroxy-3-(1H-tetrazol-1-yl)propan-2-yl)pyridin-3-yl)oxy)benzonitrile] | < 40% | 40 to 59% | – | –
OC(CCc1ccc(F)cc1F)(Cn1cnnn1)c1ccc(Oc2ccc(Cl)cn2)cn1 (stereo not shown) [Compound 2, 2-(5-((5-chloropyridin-2-yl)oxy)pyridin-2-yl)-4-(2,4-difluorophenyl)-1-(1H-tetrazol-1-yl)butan-2-ol] | 80 to 100% | < 40% | – | –
OC(CCc1ccc(Cl)cc1F)(Cn1cnnn1)c1ccc(Oc2ccc(Cl)cn2)cn1 (stereo not shown) [Compound 4] | 60 to 79% | < 40% | – | –
OC(CCc1ccc(F)cc1F)(Cn1cnnn1)c1ccc(Oc2ccc(C(F)(F)F)cn2)cn1 (stereo not shown) [Compound 5] | < 40% | 40 to 59% | – | –
CC(C)C(O)(c1cncnc1)c1ccc(Oc2ccc(Cl)cc2)cn1 (stereo not shown) [Compound 6] | 80 to 100% | 80 to 100% | – | –
OC(c1cncnc1)(c1ccc(Oc2ccc(Cl)cc2)cn1)C1CC1 (stereo not shown) [Compound 7] | 80 to 100% | 80 to 100% | – | –
OC(c1cncnc1)(c1ccc(Oc2ccc(OC(F)(F)F)cc2)cn1)C1CC1 (stereo not shown) [Compound 8] | 80 to 100% | 80 to 100% | – | –
CC(C)C(O)(c1cncnc1)c1ccc(Oc2ccc(Cl)nc2)cn1 (stereo not shown) [Compound 10] | 80 to 100% | 80 to 100% | – | –
OC(c1cncnc1)(c1ccc(Oc2ccc(Cl)nc2)cn1)C1CC1 (stereo not shown) [Compound 11] | 40 to 59% | 40 to 59% | – | –
OC(CCc1ccc(Cl)cc1F)(Cn1cnnn1)c1ccc(Oc2ccc(C(F)(F)F)cn2)cn1 (stereo not shown) [Compound 12] | 80 to 100% | < 40% | – | –
OC(CCc1ccc(Cl)cc1)(Cn1cnnn1)c1ccc(Oc2ccc(C(F)(F)F)cn2)cn1 (stereo not shown) [Compound 15] | 60 to 79% | 40 to 59% | – | –
CC(C)C(O)(c1cncnc1)c1ccc(Oc2ccc(C#N)cc2)cn1 (stereo not shown) [Compound 16] | 80 to 100% | 80 to 100% | – | –
N#Cc1ccc(Oc2ccc(C(O)(c3cncnc3)C3CC3)nc2)cc1 (stereo not shown) [Compound 18] | < 40% | < 40% | – | –
N#Cc1ccc(Oc2ccc(C(O)(Cn3cnnn3)C3CC3)nc2)cc1 (stereo not shown) [Compound 19, 4-((6-(1-cyclopropyl-1-hydroxy-2-(1H-tetrazol-1-yl)ethyl)pyridin-3-yl)oxy)benzonitrile] | < 40% | 40 to 59% | – | –
C=CCCC(O)(c1cncnc1)c1ccc(Oc2ccc(Cl)cc2)cn1 (stereo not shown) [Compound 21, 1-(5-(4-chlorophenoxy)pyridine-2-yl)-1-(pyrimidin-5-yl)pent-4-en-1-ol] | 80 to 100% | 80 to 100% | – | –
C=CCCC(O)(c1cncnc1)c1ccc(Oc2ccc(OC(F)(F)F)cc2)cn1 (stereo not shown) [Compound 22] | 80 to 100% | 80 to 100% | – | –
N#Cc1ccc(Oc2ccc(C(O)(CC3CC3)Cn3cnnn3)nc2)cc1 (stereo not shown) [Compound 23] | < 40% | 60 to 79% | – | –
CC(C)C(O)(Cn1cnnn1)c1ccc(Oc2ccc(C#N)cc2)cn1 (stereo not shown) [Compound 24] | < 40% | < 40% | – | –
CC(C)(C)C(O)(Cn1cnnn1)c1ccc(-c2ccc(OC(F)(F)F)cc2)cn1 (stereo not shown) [Compound 26, 3,3-dimethyl-1-(1H-tetrazol-1-yl)-2-[5-[4-(trifluoro-methoxy)phenyl]pyridine-2-yl]butan-2-ol] | < 40% | 40 to 59% | – | –
OC(Cc1ccc(Cl)cc1F)(Cn1cnnn1)c1ccc(-c2ccc(OC(F)(F)F)cc2)cn1 (stereo not shown) [Compound 28, 1-(4-chloro-2-fluorophenyl)-3-(1H-tetrazol-1-yl)-2-(5-(4-(trifluoromethoxy)phenyl)pyridin-2-yl)propan-2-ol] | 60 to 79% | 40 to 59% | – | –
CC(C)(C)C#CC(O)(c1cncnc1)c1ccc(Oc2ccc(Cl)cc2)cn1 (stereo not shown) [Compound 29, 1-(5-(4-chlorophenoxy)pyridin-2-yl)-4,4-dimethyl-1-(pyrimidin-5-yl)pent-2-yn-1-ol] | 80 to 100% | 80 to 100% | – | –
CC(C)(C)C#CC(O)(c1cncnc1)c1ccc(Oc2ccc(OC(F)(F)F)cc2)cn1 (stereo not shown) [Compound 31] | < 40% | 60 to 79% | – | –

SMILES | pest or weed control at 50 ppm [1, 3] | pest or weed control at 50 ppm [1, 4] | pest or weed control at 100 g/ha ([2]; 3 Day Curative, read-out: Disease Control, FI SEPTTR Type B Assay (100 g/ha) 3 DC) | pest or weed control at 100 g/ha ([2]; 3 Day Protectant, read-out: Disease Control, FI SEPTTR Type B Assay (100 g/ha) 3 DP)
CCC(O)(c1cncnc1)c1ccc(Oc2ccc(OC(F)(F)F)cc2)cn1 (stereo not shown) [Compound 32] | 80 to 100% | 80 to 100% | – | –
CC(C)(C)C#CC(O)(c1cncnc1)c1ccc(Oc2ccc(C(F)(F)F)cc2)cn1 (stereo not shown) [Compound 33] | 80 to 100% | 60 to 79% | – | –
CCC(O)(c1cncnc1)c1ccc(Oc2ccc(C(F)(F)F)cc2)cn1 (stereo not shown) [Compound 34] | 80 to 100% | 60 to 79% | – | –
CC(C)(C)C#CC(O)(c1cncnc1)c1ccc(Oc2ccc(Cl)nc2)cn1 (stereo not shown) [Compound 35] | < 40% | 60 to 79% | – | –
CCC(O)(c1cncnc1)c1ccc(Oc2ccc(Cl)nc2)cn1 (stereo not shown) [Compound 36] | < 40% | 60 to 79% | – | –
OC(C#CC1CC1)(c1cncnc1)c1ccc(Oc2ccc(Cl)cc2)cn1 (stereo not shown) [Compound 40] | 80 to 100% | 60 to 79% | – | –
OC(Cc1ccc(Cl)cc1F)(Cn1cnnn1)c1ccc(Oc2ccc(Cl)cc2)cn1 (stereo not shown) [Compound 42, 1-(4-chloro-2-fluorophenyl)-2-(5-(4-chlorophenoxy)-pyridin-2-yl)-3-(1H-tetrazol-1-yl)propan-2-ol] | 80 to 100% | 80 to 100% | – | –
CC(C)(C)C(O)(Cn1cnnn1)c1ccc(Oc2ccc(Cl)cc2)cn1 (stereo not shown) [Compound 43] | 60 to 79% | 80 to 100% | – | –
CC(C)(C)C(O)(c1cncnc1)c1ccc(Oc2ccc(Cl)cc2)cn1 (stereo not shown) [Compound 44] | < 40% | < 40% | – | –
OC(Cc1cncnc1)(c1ccc(-c2ccc(Cl)cc2)cn1)C(F)(F)F (stereo not shown) [Compound 46, 2-(5-(4-chlorophenyl)pyridin-2-yl)-1,1,1-trifluoro-3-(pyrimidin-5-yl)propan-2-ol] | 80 to 100% | 80 to 100% | – | –
OC(C#CC1CC1)(c1cncnc1)c1ccc(Oc2ccc(C(F)(F)F)cc2)cn1 (stereo not shown) [Compound 47] | 40 to 59% | 80 to 100% | – | –
OC(C#CC1CC1)(c1cncnc1)c1ccc(Oc2ccc(OC(F)(F)F)cc2)cn1 (stereo not shown) [Compound 48] | < 40% | < 40% | – | –
CC(C)(C)C#CC(O)(c1cncnc1)c1ccc(Oc2ccc(Cl)cn2)cn1 (stereo not shown) [Compound 49] | 60 to 79% | 80 to 100% | – | –
Cc1ccc(Oc2ccc(C(O)(C#CC(C)(C)C)c3cncnc3)nc2)nc1 (stereo not shown) [Compound 50] | < 40% | 60 to 79% | – | –
OC(Cc1cncnc1)(c1ccc(-c2ccc(Cl)cc2)cn1)C1CCCCC1 (stereo not shown) [Compound 52] | 60 to 79% | 60 to 79% | – | –
Cc1ccc(Oc2ccc(C(O)(c3cncnc3)C(C)C)nc2)nc1 (stereo not shown) [Compound 53] | 40 to 59% | < 40% | – | –
CCC(O)(c1cncnc1)c1ccc(Oc2ccc(Cl)cn2)cn1 (stereo not shown) [Compound 54] | < 40% | 40 to 59% | – | –
OC(Cc1cncnc1)(c1ccc(-c2ccc(Cl)cc2)cn1)C1CCCC1 (stereo not shown) [Compound 56] | 80 to 100% | 80 to 100% | – | –
CC(C)C(O)(c1cncnc1)c1ccc(Oc2ccc(C(F)(F)F)cn2)cn1 (stereo not shown) [Compound 58] | 60 to 79% | 80 to 100% | – | –
CC(C)C(O)(Cn1cnnn1)c1ccc(-c2ccc(OC(F)(F)F)cc2)cn1 (stereo not shown) [Compound 61] | 40 to 59% | 60 to 79% | – | –
CC(C)C(O)(Cn1cnnn1)c1ccc(-c2ccc(OCC(F)(F)F)nc2)cn1 (stereo not shown) [Compound 62] | 40 to 59% | 40 to 59% | – | –
COc1ncncc1C(O)(c1ccc(-c2ccc(OC(F)F)cc2)cn1)C(C)(C)C (stereo not shown) [Compound 273] | – | – | < 40% | 80 to 100%
